Legend:
Assay in all cases: Competitive isoTOP-ABPP in situ (fragment-treated cells)
Type in all cases: cell-based
[1] = target: T1, cysteines in MDA-MB-231 and Ramos cells (Homo sapiens, UniProt Q96CM8)
T1 sequence (Q96CM8 42-615): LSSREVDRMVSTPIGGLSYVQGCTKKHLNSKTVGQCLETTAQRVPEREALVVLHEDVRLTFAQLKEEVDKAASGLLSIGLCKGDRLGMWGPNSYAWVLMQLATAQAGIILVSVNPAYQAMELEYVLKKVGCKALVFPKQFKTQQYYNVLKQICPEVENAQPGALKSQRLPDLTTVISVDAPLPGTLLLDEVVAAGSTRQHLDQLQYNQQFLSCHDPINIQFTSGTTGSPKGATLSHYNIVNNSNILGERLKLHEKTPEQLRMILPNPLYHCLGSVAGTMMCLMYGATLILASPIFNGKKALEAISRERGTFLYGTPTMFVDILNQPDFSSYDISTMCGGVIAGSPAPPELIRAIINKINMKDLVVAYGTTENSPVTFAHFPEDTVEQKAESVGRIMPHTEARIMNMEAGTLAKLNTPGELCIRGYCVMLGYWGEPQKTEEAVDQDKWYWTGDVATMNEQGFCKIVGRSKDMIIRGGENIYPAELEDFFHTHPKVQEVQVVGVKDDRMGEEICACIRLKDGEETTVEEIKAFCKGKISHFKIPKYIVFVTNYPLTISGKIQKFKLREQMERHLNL
Procedure: (§1) Fragments 4 and 11 were screened at 100 μM in situ. […] Site-specific engagement of electrophilic fragments was assessed by blockade of IA-alkyne probe labeling. […] Ratios for unique peptide entries were calculated for each experiment; overlapping peptides with the same modified cysteine (e.g. different charge states, MudPIT chromatographic steps or tryptic termini) were grouped together and the median ratio was reported as the final ratio (R). The peptide ratios reported by CIMAGE were further filtered to ensure the removal or correction of low quality ratios in each individual dataset. […] R values were calculated and individual datasets were filtered as described above (R value calculation and processing).

[2] = target: cysteines in MDA-MB-231 and Ramos cells (Homo sapiens, UniProt P12268)
Procedure: as §1

[3] = target: T2, cysteines in MDA-MB-231 and Ramos cells (Homo sapiens, UniProt P24752)
T2 sequence (P24752 34-427): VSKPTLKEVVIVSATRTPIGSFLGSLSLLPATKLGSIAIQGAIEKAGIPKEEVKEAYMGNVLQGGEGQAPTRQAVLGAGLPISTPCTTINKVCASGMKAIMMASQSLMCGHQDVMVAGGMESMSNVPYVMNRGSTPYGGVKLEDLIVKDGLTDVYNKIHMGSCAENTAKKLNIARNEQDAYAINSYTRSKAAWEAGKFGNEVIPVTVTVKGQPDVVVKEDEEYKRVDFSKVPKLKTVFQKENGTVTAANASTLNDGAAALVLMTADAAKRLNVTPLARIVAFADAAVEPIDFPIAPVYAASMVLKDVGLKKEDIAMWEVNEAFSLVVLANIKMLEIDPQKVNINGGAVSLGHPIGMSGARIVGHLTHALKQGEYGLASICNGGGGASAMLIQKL
Procedure: as §1

[4] = target: T3, cysteines in MDA-MB-231 and Ramos cells (Homo sapiens, UniProt Q13155)
T3 sequence (Q13155 1-320): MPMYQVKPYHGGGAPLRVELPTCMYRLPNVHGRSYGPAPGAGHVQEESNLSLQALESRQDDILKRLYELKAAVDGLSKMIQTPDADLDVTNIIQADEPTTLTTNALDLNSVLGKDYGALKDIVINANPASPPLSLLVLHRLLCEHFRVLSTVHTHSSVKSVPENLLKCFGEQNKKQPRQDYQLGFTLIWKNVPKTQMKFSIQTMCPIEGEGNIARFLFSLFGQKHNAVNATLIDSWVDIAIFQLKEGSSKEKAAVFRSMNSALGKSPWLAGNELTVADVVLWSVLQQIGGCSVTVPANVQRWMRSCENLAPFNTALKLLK
Procedure: as §1

[5] = target: cysteines in MDA-MB-231 and Ramos cells (Homo sapiens, UniProt Q9ULV4)
Sequence of cysteines in MDA-MB-231 and Ramos cells (Homo sapiens, UniProt Q9ULV4) (Q9ULV4 whole entry): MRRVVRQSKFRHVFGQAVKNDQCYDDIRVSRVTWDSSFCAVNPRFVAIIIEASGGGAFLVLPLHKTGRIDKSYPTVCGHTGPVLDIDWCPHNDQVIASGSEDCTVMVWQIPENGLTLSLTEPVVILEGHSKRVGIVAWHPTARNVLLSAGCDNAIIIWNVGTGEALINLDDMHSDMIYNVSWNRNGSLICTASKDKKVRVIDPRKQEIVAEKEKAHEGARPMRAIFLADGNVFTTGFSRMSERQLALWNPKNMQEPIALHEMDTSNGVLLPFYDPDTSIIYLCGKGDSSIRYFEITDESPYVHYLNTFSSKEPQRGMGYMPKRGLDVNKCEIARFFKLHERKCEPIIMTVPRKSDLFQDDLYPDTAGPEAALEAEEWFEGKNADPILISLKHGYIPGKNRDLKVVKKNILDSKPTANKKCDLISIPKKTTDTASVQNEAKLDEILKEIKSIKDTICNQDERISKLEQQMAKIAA
Procedure: as §1

[6] = target: T4, cysteines in MDA-MB-231 and Ramos cells (Homo sapiens, UniProt O14879)
T4 sequence (O14879 1-490): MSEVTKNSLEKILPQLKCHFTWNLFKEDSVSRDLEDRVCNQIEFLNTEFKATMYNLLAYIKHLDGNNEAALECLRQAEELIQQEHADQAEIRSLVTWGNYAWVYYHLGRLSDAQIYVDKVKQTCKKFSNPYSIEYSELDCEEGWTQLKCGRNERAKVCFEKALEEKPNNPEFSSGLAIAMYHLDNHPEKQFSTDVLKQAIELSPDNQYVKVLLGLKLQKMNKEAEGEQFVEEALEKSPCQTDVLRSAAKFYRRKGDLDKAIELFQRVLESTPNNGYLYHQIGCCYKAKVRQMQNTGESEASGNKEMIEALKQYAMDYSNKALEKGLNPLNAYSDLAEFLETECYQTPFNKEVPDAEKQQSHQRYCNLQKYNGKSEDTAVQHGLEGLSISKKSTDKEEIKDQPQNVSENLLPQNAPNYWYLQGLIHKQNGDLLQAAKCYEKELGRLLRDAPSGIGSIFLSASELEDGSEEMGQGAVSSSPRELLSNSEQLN
Procedure: as §1

[7] = target: T5, cysteines in MDA-MB-231 and Ramos cells (Homo sapiens, UniProt Q9NS86)
T5 sequence (Q9NS86 1-450): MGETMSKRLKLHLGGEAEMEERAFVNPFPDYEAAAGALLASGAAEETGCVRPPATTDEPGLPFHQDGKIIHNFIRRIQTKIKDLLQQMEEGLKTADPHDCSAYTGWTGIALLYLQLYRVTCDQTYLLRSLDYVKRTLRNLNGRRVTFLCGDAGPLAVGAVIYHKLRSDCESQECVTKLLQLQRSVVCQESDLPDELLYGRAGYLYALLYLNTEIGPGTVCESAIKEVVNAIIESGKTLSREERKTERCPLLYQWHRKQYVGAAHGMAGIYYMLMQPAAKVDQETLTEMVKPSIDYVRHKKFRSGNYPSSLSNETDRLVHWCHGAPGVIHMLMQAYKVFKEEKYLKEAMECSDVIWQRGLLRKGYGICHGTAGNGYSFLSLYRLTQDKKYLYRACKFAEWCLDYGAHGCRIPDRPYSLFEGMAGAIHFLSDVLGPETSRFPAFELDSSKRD
Procedure: as §1

[8] = target: cysteines in MDA-MB-231 and Ramos cells (Homo sapiens, UniProt Q15021)
Sequence of cysteines in MDA-MB-231 and Ramos cells (Homo sapiens, UniProt Q15021) (Q15021 whole entry): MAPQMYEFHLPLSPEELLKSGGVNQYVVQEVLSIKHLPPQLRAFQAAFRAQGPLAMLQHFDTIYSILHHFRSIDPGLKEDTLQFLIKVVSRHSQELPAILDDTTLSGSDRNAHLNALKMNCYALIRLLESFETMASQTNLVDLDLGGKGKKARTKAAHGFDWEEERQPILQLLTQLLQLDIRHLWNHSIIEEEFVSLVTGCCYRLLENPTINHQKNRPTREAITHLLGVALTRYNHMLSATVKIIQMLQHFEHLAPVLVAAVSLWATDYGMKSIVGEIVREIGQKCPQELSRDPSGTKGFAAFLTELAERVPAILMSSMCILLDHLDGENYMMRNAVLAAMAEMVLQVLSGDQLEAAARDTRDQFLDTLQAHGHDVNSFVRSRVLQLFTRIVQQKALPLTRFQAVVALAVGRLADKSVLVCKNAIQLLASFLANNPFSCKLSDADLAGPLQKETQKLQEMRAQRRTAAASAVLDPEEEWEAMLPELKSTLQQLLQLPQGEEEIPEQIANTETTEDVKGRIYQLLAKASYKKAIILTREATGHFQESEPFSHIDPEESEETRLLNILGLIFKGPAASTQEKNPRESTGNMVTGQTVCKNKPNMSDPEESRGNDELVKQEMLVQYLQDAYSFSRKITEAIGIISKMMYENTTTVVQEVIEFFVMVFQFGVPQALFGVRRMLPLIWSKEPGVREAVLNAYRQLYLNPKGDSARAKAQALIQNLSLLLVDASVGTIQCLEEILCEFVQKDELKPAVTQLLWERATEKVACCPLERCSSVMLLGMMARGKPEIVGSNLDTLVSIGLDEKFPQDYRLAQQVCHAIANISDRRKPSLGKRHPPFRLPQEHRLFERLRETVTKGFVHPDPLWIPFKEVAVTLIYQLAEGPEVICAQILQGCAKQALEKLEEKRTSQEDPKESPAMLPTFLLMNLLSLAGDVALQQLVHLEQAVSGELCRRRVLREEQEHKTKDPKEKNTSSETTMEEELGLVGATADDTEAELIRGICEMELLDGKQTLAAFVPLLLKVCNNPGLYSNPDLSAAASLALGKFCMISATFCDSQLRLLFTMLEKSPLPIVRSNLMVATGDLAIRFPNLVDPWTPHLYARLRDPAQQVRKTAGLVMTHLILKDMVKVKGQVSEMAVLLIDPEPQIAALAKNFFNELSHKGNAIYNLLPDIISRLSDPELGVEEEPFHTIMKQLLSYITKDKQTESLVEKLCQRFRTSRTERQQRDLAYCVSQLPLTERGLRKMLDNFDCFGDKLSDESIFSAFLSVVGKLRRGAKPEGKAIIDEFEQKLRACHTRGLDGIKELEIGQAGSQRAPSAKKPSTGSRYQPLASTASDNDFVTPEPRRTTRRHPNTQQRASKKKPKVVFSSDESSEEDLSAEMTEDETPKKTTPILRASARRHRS
Procedure: as §1

SMILES	isoTOP-ABPP reactivity Q96CM8_C64 ACSF2 ([1]; 200 μM, insitu, 231)	isoTOP-ABPP reactivity P12268_C140 IMPDH2 ([2]; 200 μM, insitu, 231)	isoTOP-ABPP reactivity P12268_C331 IMPDH2 ([2]; 200 μM, insitu, 231)	isoTOP-ABPP reactivity P24752_C119 ACAT1 ([3]; 200 μM, insitu, 231)	isoTOP-ABPP reactivity P24752_C126 ACAT1 ([3]; 200 μM, insitu, 231)	isoTOP-ABPP reactivity P24752_C196 ACAT1 ([3]; 200 μM, insitu, 231)	isoTOP-ABPP reactivity P24752_C413 ACAT1 ([3]; 200 μM, insitu, 231)	isoTOP-ABPP reactivity Q13155_C291 AIMP2 ([4]; 200 μM, insitu, 231)	isoTOP-ABPP reactivity Q9ULV4_C420 CORO1C ([5]; 200 μM, insitu, 231)	isoTOP-ABPP reactivity O14879_C343 IFIT3 ([6]; 200 μM, insitu, 231)	isoTOP-ABPP reactivity Q9NS86_C187 LANCL2 ([7]; 200 μM, insitu, 231)	isoTOP-ABPP reactivity Q15021_C439 NCAPD2 ([8]; 200 μM, insitu, 231)	further results
COc1ccc2c(c1)CCCN2C(=O)CCl [compound 2]	20.0	1.3	12.1	2.6	9.1	20.0	20.0	20.0	3.0	7.6			
COc1ccc(C2CC(c3cccs3)=NN2C(=O)CCl)cc1 (centres unmarked) [compound 4]													isoTOP-ABPP reactivity Q96CM8_C64 ACSF2 ([1]; 100 μM in situ 231): 20.0; isoTOP-ABPP reactivity P12268_C140 IMPDH2 ([2]; 100 μM in situ 231): 1.0; isoTOP-ABPP reactivity P12268_C331 IMPDH2 ([2]; 100 μM in situ 231): 4.6; isoTOP-ABPP reactivity Q9NS86_C187 LANCL2 ([7]; 100 μM in situ 231): 1.6; isoTOP-ABPP reactivity P24752_C119 ACAT1 ([3]; 100 μM in situ 231): 3.0; isoTOP-ABPP reactivity P24752_C126 ACAT1 ([3]; 100 μM in situ 231): 2.8; isoTOP-ABPP reactivity P24752_C196 ACAT1 ([3]; 100 μM in situ 231): 3.5; isoTOP-ABPP reactivity P24752_C413 ACAT1 ([3]; 100 μM in situ 231): 4.5; isoTOP-ABPP reactivity Q13155_C23 AIMP2 ([4]; 100 μM in situ 231): 2.8; isoTOP-ABPP reactivity Q13155_C291 AIMP2 ([4]; 100 μM in situ 231): 20.0; isoTOP-ABPP reactivity Q15021_C439 NCAPD2 ([8]; 100 μM in situ 231): 2.2; isoTOP-ABPP reactivity Q9ULV4_C420 CORO1C ([5]; 100 μM in situ 231): 1.3; isoTOP-ABPP reactivity O14879_C343 IFIT3 ([6]; 100 μM in situ 231): 6.6
COc1cc2c(cc1OC)CN(C(=O)CCl)CC2 [compound 8]	20.0	0.9		5.5	4.5		20.0	2.4	4.6	2.1	6.1	0.6	isoTOP-ABPP reactivity Q13155_C23 AIMP2 ([4]; 200 μM, insitu, 231): 2.7
O=C(CCl)N1CCC(Cc2ccccc2)CC1 [compound 9]		1.2	1.3	3.8	14.1	5.8	19.5	1.9	2.0	17.2	15	6.1	
O=C(CCl)N1CCN(S(=O)(=O)c2ccccc2F)CC1 [compound 10]													isoTOP-ABPP ratio Q96CM8_C64 ([1]; 200 μM, insitu, 231): 20.0; isoTOP-ABPP ratio P12268_C140 ([2]; 200 μM, insitu, 231): 0.7; isoTOP-ABPP ratio P12268_C140 ([2]; 200 μM, insitu, ramos): 0.9; isoTOP-ABPP ratio P12268_C331 ([2]; 200 μM, insitu, ramos): 2.1; isoTOP-ABPP ratio Q9NS86_C187 ([7]; 200 μM, insitu, 231): 6.3; isoTOP-ABPP ratio P24752_C119 ([3]; 200 μM, insitu, 231): 4.5; isoTOP-ABPP ratio P24752_C413 ([3]; 200 μM, insitu, 231): 7.8; isoTOP-ABPP ratio, P24752_C126 ([3]; 200 μM, insitu, 231): 5.9; isoTOP-ABPP ratio, P24752_C196 ([3]; 200 μM, insitu, 231): 5.1; isoTOP-ABPP ratio P24752_C119 ([3]; 200 μM, insitu, ramos): 1.5; isoTOP-ABPP ratio P24752_C413 ([3]; 200 μM, insitu, ramos): 2.2; isoTOP-ABPP ratio, P24752_C196 ([3]; 200 μM, insitu, ramos): 2.3; isoTOP-ABPP ratio Q13155_C23 ([4]; 200 μM, insitu, 231): 2.3; isoTOP-ABPP ratio Q13155_C291 ([4]; 200 μM, insitu, 231): 1.7; isoTOP-ABPP ratio Q15021_C439 ([8]; 200 μM, insitu, 231): 5.2; isoTOP-ABPP ratio Q9ULV4_C420 ([5]; 200 μM, insitu, 231): 3.4; isoTOP-ABPP ratio O14879_C343 ([6]; 200 μM, insitu, 231): 4.9

— patent US10670605B2, “Cysteine reactive probes and uses thereof” (The Scripps Research Institute, priority 2015, dated 2020)
